# Assays:
# [1] = tested on: WT ELIC; assay: Tryptophan fluorescence emission spectrum with and without agonist; format: biochemical, Erwinia chrysanthemi; settings: WT 30 mM Cys
# Description: To measure the tryptophan (Trp) fluorescence emission of ELIC, WT or W206F ELIC was diluted to 3 ml (0.02 mg/ml) and an emission spectrum was collected in a quartz fluorescence cell using a Fluoromax Plus Spectrofluorometer (Horiba Scientific). […] Trp fluorescence measurements with rapid mixing of agonist was carried out using the SX20 stopped-flow spectrofluorometer, outfitted with a 295 nm LED excitation source. Purified ELIC was diluted to 0.1 mg/ml in Trp Stopped-flow Buffer A (10 mM Tris pH 7.5, 100 mM NaCl, 0.05% DDM). A single mixing experiment was performed by mixing ELIC with equal volumes of Buffer A + propylamine. Propylamine was prepared at varying concentrations at 2x the final concentration. The instrument dead time was ~1 ms, enabling capture of most of the time course of change in Trp fluorescence. The time course of decrease in Trp fluorescence after rapid mixing with propylamine was fit to a single exponential to obtain a time constant for the rate of decrease and a measure of the extent of decrease. All replicates were taken from distinct samples.
# [2] = tested on: WT ELIC; settings: without BaCl2; cited from earlier work
smiles,measurement,setting,value
NCCS [cysteamine],Tryptophan fluorescence emission intensity,[1]; wavelength 320,804590
same,Tryptophan fluorescence emission intensity,[1]; wavelength 321,840110
same,Tryptophan fluorescence emission intensity,[1]; wavelength 322,860020
same,Tryptophan fluorescence emission intensity,[1]; wavelength 323,881470
same,Tryptophan fluorescence emission intensity,[1]; wavelength 324,898170
same,Tryptophan fluorescence emission intensity,[1]; wavelength 325,925090
same,Tryptophan fluorescence emission intensity,[1]; wavelength 327,958460
same,Tryptophan fluorescence emission intensity,[1]; wavelength 328,977560
same,Tryptophan fluorescence emission intensity,[1]; wavelength 329,1001430
same,Tryptophan fluorescence emission intensity,[1]; wavelength 330,1017700
same,Tryptophan fluorescence emission intensity,[1]; wavelength 331,1038960
same,Tryptophan fluorescence emission intensity,[1]; wavelength 332,1051130
same,Tryptophan fluorescence emission intensity,[1]; wavelength 333,1064180
same,Tryptophan fluorescence emission intensity,[1]; wavelength 334,1076000
same,Tryptophan fluorescence emission intensity,[1]; wavelength 335,1094750
same,Tryptophan fluorescence emission intensity,[1]; wavelength 336,1105230
same,Tryptophan fluorescence emission intensity,[1]; wavelength 337,1102570
same,Tryptophan fluorescence emission intensity,[1]; wavelength 338,1110270
same,Tryptophan fluorescence emission intensity,[1]; wavelength 339,1107370
same,Tryptophan fluorescence emission intensity,[1]; wavelength 340,1100850
same,Tryptophan fluorescence emission intensity,[1]; wavelength 341,1109610
same,Tryptophan fluorescence emission intensity,[1]; wavelength 342,1105480
same,Tryptophan fluorescence emission intensity,[1]; wavelength 343,1098150
same,Tryptophan fluorescence emission intensity,[1]; wavelength 344,1095000
same,Tryptophan fluorescence emission intensity,[1]; wavelength 345,1092160
same,Tryptophan fluorescence emission intensity,[1]; wavelength 346,1088360
same,Tryptophan fluorescence emission intensity,[1]; wavelength 347,1077030
same,Tryptophan fluorescence emission intensity,[1]; wavelength 348,1068840
same,Tryptophan fluorescence emission intensity,[1]; wavelength 349,1066310
same,Tryptophan fluorescence emission intensity,[1]; wavelength 350,1055290
same,Tryptophan fluorescence emission intensity,[1]; wavelength 351,1041270
same,Tryptophan fluorescence emission intensity,[1]; wavelength 352,1036270
same,Tryptophan fluorescence emission intensity,[1]; wavelength 353,1015310
same,Tryptophan fluorescence emission intensity,[1]; wavelength 354,1003150
same,Tryptophan fluorescence emission intensity,[1]; wavelength 355,990040
same,Tryptophan fluorescence emission intensity,[1]; wavelength 356,980580
same,Tryptophan fluorescence emission intensity,[1]; wavelength 357,950350
same,Tryptophan fluorescence emission intensity,[1]; wavelength 358,943630
same,Tryptophan fluorescence emission intensity,[1]; wavelength 359,918190
same,Tryptophan fluorescence emission intensity,[1]; wavelength 360,914380
same,Tryptophan fluorescence emission intensity,[1]; wavelength 361,899440
same,Tryptophan fluorescence emission intensity,[1]; wavelength 362,877520
same,Tryptophan fluorescence emission intensity,[1]; wavelength 363,850800
same,Tryptophan fluorescence emission intensity,[1]; wavelength 364,821470
same,Tryptophan fluorescence emission intensity,[1]; wavelength 365,795670
same,Tryptophan fluorescence emission intensity,[1]; wavelength 366,776390
same,Tryptophan fluorescence emission intensity,[1]; wavelength 367,752920
same,Tryptophan fluorescence emission intensity,[1]; wavelength 368,732340
same,Tryptophan fluorescence emission intensity,[1]; wavelength 369,720880
same,Tryptophan fluorescence emission intensity,[1]; wavelength 370,691880
same,Tryptophan fluorescence emission intensity,[1]; wavelength 371,677380
same,Tryptophan fluorescence emission intensity,[1]; wavelength 372,661530
same,Tryptophan fluorescence emission intensity,[1]; wavelength 373,643370
same,Tryptophan fluorescence emission intensity,[1]; wavelength 374,622610
same,Tryptophan fluorescence emission intensity,[1]; wavelength 375,605580
same,Tryptophan fluorescence emission intensity,[1]; wavelength 376,584360
same,Tryptophan fluorescence emission intensity,[1]; wavelength 377,567600
same,Tryptophan fluorescence emission intensity,[1]; wavelength 378,558770
same,Tryptophan fluorescence emission intensity,[1]; wavelength 379,531360
same,Tryptophan fluorescence emission intensity,[1]; wavelength 380,517880
same,Tryptophan fluorescence emission intensity,[1]; wavelength 381,499820
same,Tryptophan fluorescence emission intensity,[1]; wavelength 382,482620
same,Tryptophan fluorescence emission intensity,[1]; wavelength 383,465090
same,Tryptophan fluorescence emission intensity,[1]; wavelength 384,451150
same,Tryptophan fluorescence emission intensity,[1]; wavelength 385,428430
same,Tryptophan fluorescence emission intensity,[1]; wavelength 386,420060
same,Tryptophan fluorescence emission intensity,[1]; wavelength 387,400770
same,Tryptophan fluorescence emission intensity,[1]; wavelength 388,385350
same,Tryptophan fluorescence emission intensity,[1]; wavelength 389,381600
same,Tryptophan fluorescence emission intensity,[1]; wavelength 390,360170
same,Tryptophan fluorescence emission intensity,[1]; wavelength 391,346400
same,Tryptophan fluorescence emission intensity,[1]; wavelength 392,340740
same,Tryptophan fluorescence emission intensity,[1]; wavelength 393,327660
same,Tryptophan fluorescence emission intensity,[1]; wavelength 394,316470
same,Tryptophan fluorescence emission intensity,[1]; wavelength 395,301980
same,Tryptophan fluorescence emission intensity,[1]; wavelength 396,291020
same,Tryptophan fluorescence emission intensity,[1]; wavelength 397,277640
same,Tryptophan fluorescence emission intensity,[1]; wavelength 398,265940
same,Tryptophan fluorescence emission intensity,[1]; wavelength 399,253020
same,Tryptophan fluorescence emission intensity,[1]; wavelength 400,247580
same,Tryptophan fluorescence emission intensity,[1]; wavelength 401,237600
same,Tryptophan fluorescence emission intensity,[1]; wavelength 402,233050
same,Tryptophan fluorescence emission intensity,[1]; wavelength 403,223960
same,Tryptophan fluorescence emission intensity,[1]; wavelength 404,210930
same,Tryptophan fluorescence emission intensity,[1]; wavelength 405,205250
same,Tryptophan fluorescence emission intensity,[1]; wavelength 406,197950
same,Tryptophan fluorescence emission intensity,[1]; wavelength 407,191160
same,Tryptophan fluorescence emission intensity,[1]; wavelength 408,187280
same,Tryptophan fluorescence emission intensity,[1]; wavelength 409,181840
same,Tryptophan fluorescence emission intensity,[1]; wavelength 410,170220
same,Tryptophan fluorescence emission intensity,[1]; wavelength 411,167400
same,Tryptophan fluorescence emission intensity,[1]; wavelength 412,162070
same,Tryptophan fluorescence emission intensity,[1]; wavelength 413,154720
same,Tryptophan fluorescence emission intensity,[1]; wavelength 414,150730
same,Tryptophan fluorescence emission intensity,[1]; wavelength 415,146270
same,Tryptophan fluorescence emission intensity,[1]; wavelength 416,141050
same,Tryptophan fluorescence emission intensity,[1]; wavelength 417,136250
same,Tryptophan fluorescence emission intensity,[1]; wavelength 418,131260
same,Tryptophan fluorescence emission intensity,[1]; wavelength 419,129580
same,Tryptophan fluorescence emission intensity,[1]; wavelength 420,125310
same,EC50,[2],1000 to 2000 µM
